What is called chromatographic logP is lipophilicity estimated from chromatographic retention. A low value points to a more hydrophilic compound.

The series can be described thus: physchem.

Excerpt: The determination is effected in the acidic range at pH 2.3 using 0.1% aqueous phosphoric acid and acetonitrile as eluents; linear gradient from 10% acetonitrile to 95% acetonitrile. • ^[b] The LC-MS determination in the acidic range is effected at pH 2.7 using 0.1% aqueous formic acid and acetonitrile (contains 0.1% formic acid) as eluents; linear gradient from 10% acetonitrile to 95% acetonitrile. • ^[c] The LC-MS determination in the neutral range is effected at pH 7.8 using 0.001 molar aqueous ammonium hydrogencarbonate solution and acetonitrile as eluents; linear gradient from 10% acetonitrile to 95% acetonitrile.
The calibration is effected with unbranched alkan-2-ones (having 3 to 16 carbon atoms) with known log P values (determination of the log P values using the retention times by linear interpolation between two successive alkanones).

Under “pH 2.7, log P (HCOOH)”, `O=C(O)c1ccccc1C1CC(c2csc(C3CCN(C(=O)Cn4nc(C(F)F)cc4C(F)F)CC3)n2)=NO1` (stereo not drawn) [2-{3-[2-(1-{[3,5-Bis(difluoromethyl)-1H-pyrazol-1-yl]acetyl}piperidin-4-yl)-1,3-thiazol-4-yl]-4,5-dihydro-1,2-oxazol-5-yl}benzoic acid] yielded a chromatographic logP of 2.63.
For `COCCOCc1ccccc1C1CC(c2csc(C3CCN(C(=O)Cn4nc(C(F)F)cc4C(F)F)CC3)n2)=NO1` (stereo not drawn) [I-11, 2-[3,5-Bis(difluoromethyl)-1H-pyrazol-1-yl]-1-{4-[4-(5-{2-[(2-methoxyethoxy)methyl]phenyl}-4,5-dihydro-1,2-oxazol-3-yl)-1,3-thiazol-2-yl]piperidin-1-yl}ethanone], the chromatographic logP (pH 2.7, logp [b]) amounted to 3.21.
`CCSCc1ccccc1C1CC(c2csc(C3CCN(C(=O)Cn4nc(C(F)F)cc4C(F)F)CC3)n2)=NO1` (stereo not drawn) [I-12, 2-[3,5-Bis(difluoromethyl)-1H-pyrazol-1-yl]-1-{4-[4-(5-{2-[(ethylsulphanyl)methyl]phenyl}-4,5-dihydro-1,2-oxazol-3-yl)-1,3-thiazol-2-yl]piperidin-1-yl}ethanone]: for the setting “pH 2.7, logp [b]”, the chromatographic logP came out at 3.9.
For the compound `O=C(OCC1CC1)c1ccccc1C1CC(c2csc(C3CCN(C(=O)Cn4nc(C(F)F)cc4C(F)F)CC3)n2)=NO1` (stereo not drawn) [I-13, Cyclopropylmethyl 2-{3-[2-(1-{[3,5-bis(difluoromethyl)-1H-pyrazol-1-yl]acetyl}piperidin-4-yl)-1,3-thiazol-4-yl]-4,5-dihydro-1,2-oxazol-5-yl}benzoate], the chromatographic logP by setting is: (pH 2.7, logp [b]) 3.99; (pH 7.8, logp [c]) 3.92.
For `O=Cc1cccc(F)c1C1CC(c2csc(C3CCN(C(=O)Cn4nc(C(F)F)cc4C(F)F)CC3)n2)=NO1` (stereo not drawn) [I-17, 2-{3-[2-(1-{[3,5-Bis(difluoromethyl)-1H-pyrazol-1-yl]acetyl}piperidin-4-yl)-1,3-thiazol-4-yl]-4,5-dihydro-1,2-oxazol-5-yl}-3-fluorobenzaldehyde], in that order: 2.92 and 2.82.
As for `C=C(C)COc1ccccc1C1CC(c2csc(C3CCN(C(=O)Cn4nc(C(F)F)cc4C(F)F)CC3)n2)=NO1` (stereo not drawn) [I-18, 2-[3,5-bis(difluoromethyl)-1H-pyrazol-1-yl]-1-{4-[4-(5-{2-[(2-methylprop-2-en-1-yl)oxy]phenyl}-4,5-dihydro-1,2-oxazol-3-yl)-1,3-thiazol-2-yl]piperidin-1-yl}ethanone], the chromatographic logP came out at 3.96 (pH 2.7, logp [b]) and 3.92 (pH 7.8, logp [c]).
Consider `O=C(Cn1nc(C(F)F)cc1C(F)F)N1CCC(c2nc(C3=NOC(c4ccccc4OCC4CCCCC4)C3)cs2)CC1` (stereo not drawn) [I-24, 2-[3,5-Bis(difluoromethyl)-1H-pyrazol-1-yl]-1-[4-(4-{5-[2-(cyclohexylmethoxy)phenyl]-4,5-dihydro-1,2-oxazol-3-yl}-1,3-thiazol-2-yl)piperidin-1-yl]ethanone], for which the chromatographic logP reads like this: (pH 2.3) 4.9; (pH 7.8) 4.9.
In turn, `O=C(NC1CC1)c1ccccc1C1CC(c2csc(C3CCN(C(=O)Cn4nc(C(F)F)cc4C(F)F)CC3)n2)=NO1` (stereo not drawn) [I-27, 2-{3-[2-(1-{[3,5-Bis(difluoromethyl)-1H-pyrazol-1-yl]acetyl}piperidin-4-yl)-1,3-thiazol-4-yl]-4,5-dihydro-1,2-oxazol-5-yl}-N-cyclopropylbenzamide] yielded a chromatographic logP (pH 2.7, logp [b]) of 2.64.
Turning to `COCCOc1cccc(C2CC(c3csc(C4CCN(C(=O)Cn5nc(C(F)F)cc5C(F)F)CC4)n3)=NO2)c1` (stereo not drawn) [I-28, 2-[3,5-Bis(difluoromethyl)-1H-pyrazol-1-yl]-1-[4-(4-{5-[3-(2-methoxyethoxy)phenyl]-4,5-dihydro-1,2-oxazol-3-yl}-1,3-thiazol-2-yl)piperidin-1-yl]ethanone], the chromatographic logP (pH 2.7, logp [b]) amounted to 3.03 and the chromatographic logP (pH 7.8, logp [c]) came out at 3.04.
Regarding `O=Cc1ccccc1-c1cc(-c2csc(C3CCN(C(=O)Cn4nc(C(F)F)cc4C(F)F)CC3)n2)no1` [I-31, 2-{3-[2-(1-{[3,5-Bis(difluoromethyl)-1H-pyrazol-1-yl]acetyl}piperidin-4-yl)-1,3-thiazol-4-yl]-1,2-oxazol-5-yl}benzaldehyde], the chromatographic logP (pH 2.7, logp [b]) was found to be 3.25.

The values above are taken from US9167821B2 (priority 2009, dated 2015).
